Test results from patent US11225503B2, “Crystobactamides” (HELMHOLTZ-ZENTRUM FÜR INFEKTIONSFORSCHUNG GMBH, priority 2013, dated 2022).

Experiment: in vitro
Format: cell-based, Chinese hamster
Settings: Chinese hamster
Method: Human HCT-116 colon carcinoma cells (CCL-247) were obtained from the American Type Culture Collection (ATCC) and Chinese hamster ovary CHO-K1 cells (ACC-110) were obtained from the German Collection of Microorganisms and Cell Cultures (DSMZ). Both cell lines were cultured under the conditions recommended by the respective depositor. Primary HUVEC (human umbilical vein endothelial cells; single donor) were purchased from PromoCell (Heidelberg, Germany) and cultured in Endothelial Cell Growth Medium (PromoCell) containing the following supplements: 2% FCS, 0.4% ECGS, 0.1 ng/ml EGF, 1 ng/ml bFGF, 90 μg/ml heparin, 1 μg/ml hydrocortisone.
Cells were seeded at 6×10^3 cells per well of 96-well plates (Corning CellBind®) in complete medium (180 μl) and directly treated with cystobactamides dissolved in methanol in a serial dilution. Compound were tested in duplicate for 5 d, as well as the internal solvent control. After 5 d incubation, 5 mg/ml MTT in PBS (20 μL) was added per well and it was further incubated for 2 h at 37° C.[7] The medium was then discarded and cells were washed with PBS (100 μl) before adding 2-propanol/10N HCl (250:1, v/v; 100 μl) in order to dissolve formazan granules. The absorbance at 570 nm was measured using a microplate reader (EL808, Bio-Tek Instruments Inc.).

`CC(C)Oc1cc(C(=O)O)ccc1NC(=O)c1ccc(NC(=O)c2ccc(N)cc2)c(OC(C)C)c1O` [cystobactamide C, Cystobactamide C] showed a GI50 at 5 d of about 111 µM.
